Test results: patent publication US7541363B2, “Microcrystal” (Kyowa Hakko Kirin Co., Ltd., priority 2003, dated 2009)
One block for each compound: values may come before it.

Tests used:
[1] = Crystallinity by powder X-ray diffraction; assay type: physicochemical
Text: Although there is no particular limitation for the “microcrystal(s) of (E)-8-(3,4-dimethoxystyryl)-1,3-diethyl-7-methyl-3,7-dihydro-1H-purine-2,6-dione having an average particle size of less than 50 μm” (that is “microcrystal(s) of Compound 1”) of the present invention so far as it is the crystalline Compound 1 having an average particle size of less than 50 μm, among them microcrystal(s) having an average particle size of 0.5 to 20 μm is/are preferable. The “microcrystal(s) of Compound 1” having a crystallinity of 20% or more is/are more preferable. Among them, the “microcrystal(s) of Compound 1” having a crystallinity of 30% or more is/are still more preferable and the “microcrystal(s) of Compound 1” having a crystallinity of 40% or more is/are most preferable. Incidentally, the average particle size thereof can be measured by using, for example, a laser diffraction/scattering particle size distribution analyzer (e.g., Mastersizer 2000, Ver. 2.00J; manufactured by Malvern Instruments), an image analyzer (e.g., Luzex® AP; manufactured by Nileco) or the like, and can be calculated as the mean of the particle size distribution. The crystallinity thereof can be calculated by measuring the integral intensity of the diffraction peak at a specific angle of diffraction 2θ by using a powder X-ray diffractmeter (e.g., JDX 8030; manufactured by Nippon Denshi).
The crystallinity of Compound 1 in each Sample (hereinafter, may be just referred to as the crystallinity) was calculated by the following method after measuring the diffraction peak of each Sample by changing from 0° to 40° at the angle of diffraction 2θ by a powder X-ray diffractmeter.
A calibration curve used for the calculation of the relative crystallinity was prepared by measuring the integral intensity of the diffraction peak at angle of diffraction 2θ=about 16° using physical mixtures prepared in various ratios and then plotting the ratios of amounts of the “crystalline Compound 1” in the physical mixtures against the integral intensities of the diffraction peaks respectively.
An integral intensity of the diffraction peak of the sample at the angle of diffraction 2θ=about 16° was measured. An amount of the “crystalline Compound 1” in each sample was calculated from the measured integral intensity on the basis of the above-described calibration curve, and the relative crystallinity (%) of each sample was determined from the following formula as the ratio of the amount of “Compound 1” (“crystalline Compound 1” and “an amorphous Compound 1”) against the amount of the “crystalline Compound 1”. A crystallinity (%) was determined by a proportional calculation from the relative crystallinity (%) determined hereinabove and the crystallinity (87.2%) of the unpulverized “crystals of Compound 1”. Relative Crystallinity (%)=(Amount of the “crystalline Compound 1”/Amount of “Compound 1”)×100 <Method for Measurement of Photostability>

[2] = Comparison of absorption in oral administration (plasma concentration); assay type: in vivo, male rats of SD strain; conditions: male SD rats; for Cmax (maximum concentration in plasma): 0.3 mg/mL suspension in 0.5 w/v % methyl cellulose at 10 mL/kg, mean ± s.e.m., three rats
Description: Each of Crystal B (the average particle size of crystals: 181 μm) and Microcrystals B (the average particle size of crystals: 11 μm) obtained in Example 3 was suspended in a 0.5 w/v % aqueous solution of methyl cellulose to prepare a drug liquid (0.3 mg/mL) for administration. The resulting drug liquid was orally administered to male rats of SD strain (body weight: 209 to 233 g; Nippon Charles River) at the dose of 10 mL/kg. Blood of the rat (about 0.3 mL for each time) was sequentially collected from tail vein by using a heparin-treated capillary tube 0.25, 0.5, 1, 2, 4, 6, 8, 12 and 24 hour(s) after the administration. The resulting blood was centrifuged (1,950×g, 10 minutes, 4° C.) and plasma was separated. Concentration of “Compound 1” in the resulting plasma was measured by HPLC and mean value from three rats was calculated. Maximum concentration in plasma (Cmax), the area under the plasma curve of concentration-time curve between the administration and the point which can be determined quantitatively finally (AUC0-t) and the area under the plasma curve of concentration-time curve between the administration and infinitive time (AUC0-∞), of case in which each of Crystals B and Microcrystals B were orally administered to the rat, are shown in Table 2. Incidentally, conditions for the measurement by HPLC are as follows. Instrument for analysis: Series L-7000 (manufactured by Hitachi) Column: Ultron VX-ODS (φ4.6×150 mm) Column temperature: 30° C. Mobile phase: 10 mmol/L acetate buffer (pH 5.7)/acetonitrile=53/47 […] Detecting condition: UV 360 nm

[3] = double bond (vinylene) moiety apt to be isomerized; cited from earlier work
adenosine A2 receptor = conditions: cited from earlier work
[4] = Photostability: residual ratio of Compound 1 after irradiation under a fluorescent lamp; assay type: physicochemical; conditions: no HPMC, unpulverized; about 5,000 lx fluorescent lamp, 8 hours
Description: Photostability of each sample was traced by measuring the residual ratio (%) of “Compound 1” in the sample according to the following method.
Transparent glass vials, in which the samples were weighed and filled, were stored at about 5,000 lx under a fluorescent lamp, and each sample was sampled 8 hours after the irradiation. The sampled sample was dissolved in a mixed solvent of water and acetonitrile (water:acetonitrile=60:40), and then the amount of “Compound 1” in the sample was determined quantitatively by using a high-performance liquid chromatography (HPLC). Amount of “Compound 1” before irradiation was defined as 100% and the amount of “Compound 1” after irradiation thereto was calculated as the residual ratio (%).
Conditions for the measurement by HPLC are as follows.
Instrument for analysis: Series LC-6 (manufactured by Shimadzu)
Column: Inertsil ODS-2 (φ6×150 mm)
Column temperature: 25° C.
Mobile phase: 50 mmol/L KH2PO4 (pH 6.1, KOH)/acetonitrile=60/40
Detecting condition: UV 248 nm

[5] = crystals synthesized by the prior-art process; cited from earlier work
[6] = Solubility in water at room temperature against elapsed time; assay type: physicochemical; conditions: 2 mg in water (200 mL) at room temperature
Description: By using Crystals A (the average particle size of crystals: 167 μm, 2 mg) and Microcrystals A (the particle size of microcrystals D100=8.7 μm, 2 mg) obtained in Example 2, the solubility of each of them in water (200 mL) at room temperature was measured.

[7] = Aggregation and dispersing property during steps for preparing pharmaceutical formulation; assay type: physicochemical
[8] = drug substance crystals as obtained

- crystallinity [1, 8]: 67.3%
- Cmax (maximum concentration in plasma) [2]: 238 ± 4 ng/mL
Structure (SMILES): CCn1c(=O)c2c(nc(/C=C/c3ccc(OC)c(OC)c3)n2C)n(CC)c1=O [Microcrystals B, (E)-8-(3,4-dimethoxystyryl)-1,3-diethyl-7-methyl-3,7-dihydro-1H-purine-2,6-dione]
- absorption in oral administration ([2]; compared with Crystals B): better absorption in oral administration than Crystals B

- Residual Rate of “Compound 1” [4]: 100.0%
- crystallinity [1, 8]: 87.2%
- crystallinity ([1]; no HPMC, unpulverized): 87.2%
Structure (SMILES): CCn1c(=O)c2c(nc(/C=C/c3ccc(OC)c(OC)c3)n2C)n(CC)c1=O [Unpulverized “Crystals of Compound 1”, (E)-8-(3,4-dimethoxystyryl)-1,3-diethyl-7-methyl-3,7-dihydro-1H-purine-2,6-dione]
- solubility in water [5]: low

The remaining lines, values behind:

Structure (SMILES): CCn1c(=O)c2c(nc(/C=C/c3ccc(OC)c(OC)c3)n2C)n(CC)c1=O [Compound 1, (E)-8-(3,4-dimethoxystyryl)-1,3-diethyl-7-methyl-3,7-dihydro-1H-purine-2,6-dione]
- stability under light [3]: unstable particularly under light
- adenosine A2 receptor antagonistic activity (adenosine A2 receptor): shows an adenosine A2 receptor antagonistic activity

Structure (SMILES): CCn1c(=O)c2c(nc(/C=C/c3ccc(OC)c(OC)c3)n2C)n(CC)c1=O [Microcrystals A, (E)-8-(3,4-dimethoxystyryl)-1,3-diethyl-7-methyl-3,7-dihydro-1H-purine-2,6-dione]
- crystallinity [1, 8]: 84.6%
- solubility of Compound 1 [6]: good solubility
- dissolving velocity ([6]; compared with Crystals A): quick dissolving velocity as compared to Crystals A
- aggregation of the crystals during steps for preparing pharmaceutical formulation [7]: no phenomenon of aggregation
- dispersing property ([7]; compared with Crystals A): excellent dispersing property as compared to Crystals A

Structure (SMILES): CCn1c(=O)c2c(nc(/C=C/c3ccc(OC)c(OC)c3)n2C)n(CC)c1=O [Crystals B, (E)-8-(3,4-dimethoxystyryl)-1,3-diethyl-7-methyl-3,7-dihydro-1H-purine-2,6-dione]
- crystallinity [1, 8]: 71.6%
- Cmax (maximum concentration in plasma) [2]: 72.6 ± 31.7 ng/mL
